What was measured:
G1 APOL1 = target: T1, G1 APOL1 (Homo sapiens, UniProt O14791, I384M/S342G); assay: Acute APOL1 Thallium Assay with Inducible Stable Clones of HEK 293 Cells; assay type: cell-based; settings: HEK 293 inducible stable clones, G1 APOL1; read-out: Thallium Assay (IC50)
T1 construct: expressed in transfected cells
T1 sequence (O14791 28-398 S342G/I384M): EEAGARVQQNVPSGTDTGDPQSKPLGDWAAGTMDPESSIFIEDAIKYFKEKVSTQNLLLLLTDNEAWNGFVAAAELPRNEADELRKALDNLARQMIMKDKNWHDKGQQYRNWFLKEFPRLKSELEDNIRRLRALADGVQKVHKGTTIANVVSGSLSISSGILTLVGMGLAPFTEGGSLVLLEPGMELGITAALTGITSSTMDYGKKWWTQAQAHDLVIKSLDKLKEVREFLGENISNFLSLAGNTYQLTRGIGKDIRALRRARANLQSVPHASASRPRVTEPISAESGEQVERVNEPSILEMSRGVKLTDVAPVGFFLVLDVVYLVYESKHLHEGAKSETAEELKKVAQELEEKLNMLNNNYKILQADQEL
How it was run: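 Pore activity was read as the fluorescence increase from Tl+ entering cells loaded with an AM-ester thallium indicator dye. The cells were tetracycline-inducible HEK293 T-Rex expressing G1 APOL1 (clone DC3.25), induced when plated at 26000 per well and incubated at 37° C.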

APOL1 G1 Protein = target: T2, APOL1 G1 Protein (Homo sapiens, UniProt O14791, I384M/S342G); assay: Trypanosoma brucei brucei Lysis Assay Using APOL1 Recombinant Protein (AlamarBlue viability); assay type: cell-based; settings: read-out: Trypanosomal Assay (IC50)
T2 sequence (O14791 28-398 S342G/I384M): T1 sequence (O14791 28-398 S342G/I384M)
Excerpt: Trypanosoma brucei brucei is a blood stream parasite to which human, gorillas and baboon are immune due to the presence of the APOL1 protein in their HDL particles. The protein is uptaken by the parasite via the TbHpHb receptor located in its flagellar pocket and is bonded by the Hpr protein contained in the HDL particles which triggers the receptor endocytosis by the parasite.
Following endocytosis, the formed vesicle containing the HDL particle matures from early to late endosome, and subsequently to lysosome. The concomitant pH change in the lumen of the vesicle triggers the insertion of the APOL1 protein into the membrane of the late endosome/lysosome and hereby triggers lysosomal membrane permeabilization and as a further downstream event, trypanosome lysis. Trypanosoma brucei brucei is sensitive to lysis by all three APOL1 variants (G0, G1, and G2).
The Trypanosoma brucei brucei lysis assay is a lysis assay of the parasite using recombinant APOL1 protein variant followed by a fluorescent detection method of viability by the addition of AlamarBlue reagent to the assay well, a general metabolic redox indicator (AlamarBlue assay).
Briefly, the AlamarBlue active compound, the resazurin, a blue, water soluble, non-toxic and cell permeable molecule, which can be followed by absorbance, is reduced by various metabolic pathways into resorufin, a red compound which can be followed by either absorbance or fluorescence. The assay allows the calculation of the percent viability (percent of living Trypanosomes remaining in each well) at the end of a lysis relative to the untreated condition by interpolation of fluorescent values (FLU) on a standard curve with a known amount of seeded trypanosome/well.
Trypanosoma brucei brucei (ATCC, Cat. No. PRA-382) • Lister 427 VSG 221 bloodstream form.
Thaw/Expansion Media (ATCC Medium 2834 Modified HMI-9 Medium)
Assay Media (No Phenol Red/No FBS): Make on Day of Use
Hypoxanthine Stock (100×)-9 (10×)
Equipment • E1-Clip Tip pipette 12 channel adjustable 2-125 μL, Cat. No. 4672070BT • ThermoFisher MultiDrop 384, Cat. No. 5840300 • Multidrop • Agilent Bravo, Cat. No. G5409A • Bravo • SpectraMax M5
Trypanosoma brucei brucei Culture
Step 2, Day 4 • Centrifuge at 800×g for 5 minutes at room temperature. • Resuspend in 1 mL media. • Make a 1:25 fold dilution (10 μL/240 μL media). • Count on a hemocytometer (after adding parasites). • Let sit for 1-2 minutes for the parasites to settle. • Count should be approximately 100 viable motile parasites/16 grid or approximately 25×10^6 parasites/flask. • Passage the parasites by adding 1×10^6 parasites/T75 flask in 20 mL media. • Passage the parasites by adding 2.33×10^6 parasites/T175 flask in 46.6 mL media. • For every T75 flask should make enough for approximately 1.5×384 well assay plates. • For every T175 flask should make enough for approximately 3.8×384 well assay plates.
Step 3, Day 6 • Centrifuge at 800×g for 5 minutes. • Resuspend in 3 mL assay media (No phenol red, no FBS) per 75 starting flask. • Resuspend in 7 mL assay media (No phenol red, no FBS) per 175 flask • Make a 1:25 fold dilution. • Count by hemocytometer. • Every T75 flask set up should have approximately 75×10^6 parasites/flask (verify doubling time=8.7 hours±1 hour). • Every T175 flask set up should have approximately 175×10^6 parasites/flask (verify doubling time=8.7 hours±1 hour). • Require 46×10^6 parasites per 384 well plate (at 120,000 parasites per well). […]

| Compound | IC50 (G1 APOL1) | IC50 (APOL1 G1 Protein) |
| --- | --- | --- |
| C[C@H](NC(=O)CCc1c(-c2ccc(F)cc2)[nH]c2ccc(F)cc12)C(N)=O [Compound 61] | > 1000 nM | > 1000 nM |
| CS(=O)(=O)NC(=O)CCc1c(-c2ccc(F)cc2)[nH]c2c(F)cc(F)cc12 [Compound 93, 3-[5,7-difluoro-2-(4-fluorophenyl)-1H-indol-3-yl]-N-methylsulfonyl-propanamide] | > 1000 nM | > 1000 nM |
| O=C(CCc1c(-c2ccc(F)cc2)[nH]c2c(F)cc(F)cc12)N1CC[C@@H]1CO [Compound 112] | > 1000 nM | 250 to 1000 nM |
| N[C@H]1C[C@H](NC(=O)CCc2c(-c3ccc(F)cc3)[nH]c3ccc(F)cc23)C1 [Compound 54] | > 1000 nM | > 1000 nM |
| CC1(C)COC(=O)C1NC(=O)CCc1c(-c2ccc(F)cc2)[nH]c2c(F)cc(F)cc12 (centres unmarked) [Compound 193] | > 1000 nM | > 1000 nM |
| OCCc1c(-c2ccc(F)cc2)[nH]c2c(F)cc(F)cc12 [Compound 433, 2-[5,7-difluoro-2-(4-fluorophenyl)-1H-indol-3-yl]ethanol] | < 250 nM | < 250 nM |
| O=C(CCc1c(-c2ccc(F)cc2)[nH]c2ccc(F)cc12)NC1CONC1=O (centres unmarked) [Compound 63] | > 1000 nM | > 1000 nM |
| O=C(CCc1c(-c2ccc(F)cc2)[nH]c2ccc(F)cc12)NCCCO [Compound 85] | > 1000 nM | > 1000 nM |
| CC(C)(C)OC(=O)NC1CCCN(C(=O)CCc2c(-c3ccc(F)cc3)[nH]c3ccc(F)cc23)C1 (centres unmarked) [Compound 66] | > 1000 nM | > 1000 nM |
| O=C(CCc1c(-c2ccc(F)cc2)[nH]c2c(F)cc(Br)cc12)N[C@H](CO)C(F)(F)F [Compound 228] | > 1000 nM | > 1000 nM |
| O=C(CCc1c(-c2ccc(F)cc2)[nH]c2c(F)cc(F)cc12)NC(CO)(CO)CO [Compound 95] | 250 to 1000 nM | 250 to 1000 nM |
| O=C(CCc1c(-c2ccc(F)cc2)[nH]c2c(F)cc(F)cc12)NC1(CO)CCOC1 (centres unmarked) [Compound 116] | > 1000 nM | > 1000 nM |
| C[C@@H](CO)N(C)C(=O)CCc1c(-c2ccc(F)cc2)[nH]c2c(F)cc(F)cc12 [Compound 149] | > 1000 nM | > 1000 nM |
| CC(=O)NCCCCc1c(-c2ccc(F)cc2)[nH]c2c(F)cc(F)cc12 [Compound 512, N-[4-[5,7-difluoro-2-(4-fluorophenyl)-1H-indol-3-yl]butyl]acetamide] | 250 to 1000 nM | 250 to 1000 nM |
| Cc1cc(NC(=O)CCc2c(-c3ccc(F)cc3)[nH]c3ccc(F)cc23)no1 [Compound 526] | > 1000 nM | > 1000 nM |
| N#CC(CO)NC(=O)CCc1c(-c2ccc(F)cc2)[nH]c2c(F)cc(F)cc12 (centres unmarked) [Compound 106] | < 250 nM | 250 to 1000 nM |
| Cc1cccc(CNC(=O)CCc2c(-c3ccc(F)cc3)[nH]c3c(F)cc(F)cc23)n1 [Compound 183] | > 1000 nM | > 1000 nM |
| O=C(CCc1c(-c2ccc(F)cc2)[nH]c2c(F)cc(F)cc12)NC[C@@H](O)C(F)(F)F [Compound 137] | > 1000 nM | > 1000 nM |
| CS(=O)(=O)CNC(=O)CCc1c(-c2ccc(F)cc2)[nH]c2c(F)cc(F)cc12 [Compound 173] | > 1000 nM | > 1000 nM |
| O=C(CCc1c(-c2ccc(F)cc2)[nH]c2c(F)cc(F)cc12)NCc1cn(CC(F)(F)F)cn1 [Compound 168] | > 1000 nM | > 1000 nM |
| CC(C)(C)OC(=O)NC1CCC(NC(=O)CCc2c(-c3ccc(F)cc3)[nH]c3ccc(F)cc23)C1 (centres unmarked) [Compound 60] | > 1000 nM | > 1000 nM |
| Cn1ccc(NC(=O)CCc2c(-c3ccc(F)cc3)[nH]c3c(F)cc(F)cc23)n1 [Compound 163] | > 1000 nM | > 1000 nM |

| Compound | IC50 (G1 APOL1) | IC50 (APOL1 G1 Protein) |
| --- | --- | --- |
| O=C(CCc1c(-c2ccc(F)cc2)[nH]c2c(F)cc(F)cc12)NC1CCC1(F)F (centres unmarked) [Compound 124] | 250 to 1000 nM | > 1000 nM |
| O=C(CCc1c(-c2ccc(F)cc2)[nH]c2c(F)cc(F)cc12)NCc1ncco1 [Compound 153] | > 1000 nM | > 1000 nM |
| O=C(CCc1c(-c2ccc(F)cc2)[nH]c2c(F)cc(F)cc12)Nc1nnc(C(F)(F)F)o1 [Compound 148] | > 1000 nM | > 1000 nM |
| O=C(CCc1c(-c2ccc(F)cc2)[nH]c2c(F)cc(F)cc12)NC(CCO)C(=O)O (centres unmarked) [Compound 188] | < 250 nM | 250 to 1000 nM |
| O=C(CCc1c(-c2ccc(F)cc2)[nH]c2ccc(F)cc12)NC1(CO)CC1 [Compound 40] | 250 to 1000 nM | 250 to 1000 nM |
| O=C(CCc1c(-c2ccc(F)cc2)[nH]c2c(F)cc(F)cc12)N[C@H]1CC[C@H](O)C1 [Compound 135] | > 1000 nM | > 1000 nM |
| Nc1ccnn1C(=O)CCc1c(-c2ccc(F)cc2)[nH]c2ccc(F)cc12 [Compound 6] | 250 to 1000 nM | 250 to 1000 nM |
| O=C(CCc1c(-c2ccc(F)cc2)[nH]c2c(F)cc(F)cc12)Nc1cccnc1 [Compound 174] | > 1000 nM | > 1000 nM |
| O=C(CCc1c(-c2ccc(F)cc2)[nH]c2c(F)cc(F)cc12)N[C@@H](CO)C(F)(F)F [Compound 121] | < 250 nM | < 250 nM |
| Cn1ccnc1NC(=O)CCc1c(-c2ccc(F)cc2)[nH]c2c(F)cc(F)cc12 [Compound 108] | > 1000 nM | > 1000 nM |
| O=C(CCc1c(-c2ccc(F)cc2)[nH]c2ccc(F)cc12)N[C@H]1CC[C@@H]1O [Compound 29] | 250 to 1000 nM | 250 to 1000 nM |
| C[C@@H](O)CNC(=O)CCc1c(-c2ccc(F)cc2)[nH]c2ccc(F)cc12 [Compound 79] | > 1000 nM | > 1000 nM |
| O=C1CCC(NC(=O)CCc2c(-c3ccc(F)cc3)[nH]c3c(F)cc(F)cc23)C(=O)N1 (centres unmarked) [Compound 190] | > 1000 nM | > 1000 nM |
| CC(CO)(CO)NC(=O)CCc1c(-c2ccc(F)cc2)[nH]c2ccc(F)cc12 [Compound 18] | 250 to 1000 nM | 250 to 1000 nM |
| CN(CCO)C(=O)CCc1c(-c2ccc(F)cc2)[nH]c2c(F)cc(F)cc12 [Compound 143] | > 1000 nM | > 1000 nM |
| NC(=O)C(CO)NC(=O)CCc1c(-c2ccc(F)cc2)[nH]c2ccc(F)cc12 (centres unmarked) [Compound 36] | > 1000 nM | > 1000 nM |
| O=C(CCc1c(-c2ccc(F)cc2)[nH]c2c(F)cc(F)cc12)NCc1cocn1 [Compound 155] | > 1000 nM | > 1000 nM |
| Cc1cnc(NC(=O)CCc2c(-c3ccc(F)cc3)[nH]c3c(F)cc(F)cc23)o1 [Compound 172] | > 1000 nM | > 1000 nM |
| CN(CC(F)(F)F)C(=O)CCc1c(-c2ccc(F)cc2)[nH]c2c(F)cc(F)cc12 [Compound 166] | > 1000 nM | > 1000 nM |
| O=C(CCc1c(-c2ccc(F)cc2)[nH]c2c(F)cc(F)cc12)NC1CCCNC1=O (centres unmarked) [Compound 113] | > 1000 nM | 250 to 1000 nM |
| CCC(C)(O)CNC(=O)CCc1c(-c2ccc(F)cc2)[nH]c2ccc(F)cc12 (centres unmarked) [Compound 74] | > 1000 nM | > 1000 nM |
